{"source": "patent US20050282873A1", "about": "“Epothilone derivative for the treatment of hepatoma and other cancer diseases” (priority 2002, published 2005)", "format_in_all_cases": "in vivo, human", "key": {"[1]": {"test_system": "advanced colorectal cancer", "assay": "Open-label, single-arm, two-stage multicenter efficacy study in advanced colorectal cancer, once every three weeks", "details": "i.v. 6.0 mg/m^2, 5 minute bolus infusion once every three weeks; colorectal cancer patients who failed fluoropyrimidine and Irinotecan or oxaliplatin; trial ongoing", "description": "An open-label, single-arm, two-stage, multicenter study to investigate the efficacy of 7,11-Dihydroxy-8,8,10,12,16-pentamethyl-3-[1-methyl-2-(2-methyl-thiazol-4-yl)-vinyl]4,17-dioxa-bicyclo[14.1.0]heptadecane-5,9-dione administered intravenously at 6.0 mg/m^2 as a 5 minute bolus infusion repeated once every three weeks in patients with advanced colorectal cancer. 7,11-Dihydroxy-8,8,10,12,16-pentamethyl-3-[1-methyl-2-(2-methyl-thiazol-4-yl)vinyl]4,17-dioxa-bicyclo[14.1.0]heptadecane-5,9-dione is administered once every three weeks until either progression of disease or unacceptable toxicities occurs. Each three-week period is considered one cycle. Patients are evaluated for tumor response one week after the last dose of every third cycle, starting with Cycle 3. Patients may, at any time, have their dose reduced to 5.4 mg/m^2 or 4.8 mg/m^2 if in the investigator's opinion the original dose is either intolerable or unsafe for any given patient, and without such a dose reduction the patient will be forced to withdraw from the study. All dose modifications are captured on the Dose Administration Record CRF.\nThe study period for efficacy evaluation is up to nine cycles. […]"}, "[2]": {"test_system": "ovarian, primary Fallopian, or primary peritoneal cancer", "assay": "Open-label, single-arm, two-stage, multi-center efficacy study in ovarian, primary Fallopian or primary peritoneal cancer patients", "details": "i.v. 2.5 mg/m2, 5 minute bolus infusion weekly for three weeks, one week off; patients failed or relapsed within six months of first-line taxane/platinum therapy; study ongoing", "description": "An open-label, single-arm, two-stage, multi-center study investigating the efficacy of 7,11-Dihydroxy-8,8,10,12,16-pentamethyl-3-[1-methyl-2-(2-methyl-thiazol-4-yl)-vinyl]-4,17-dioxa-bicyclo[14.1.0]heptadecane-5,9-dione administered intravenously at 2.5 mg/m2 as a 5 minute bolus infusion repeated every week for three weeks followed by one week off in patients who have ovarian, primary Fallopian, or primary peritoneal cancer. […] Chemotherapies other than taxane/platinum or an additional agent to this regimen will not be allowed. […] A third therapeutic agent administered as part of the taxane/platinum therapy is permitted for refractory disease if all other criteria are met."}, "[3]": {"test_system": "androgen-independent prostate cancer", "assay": "Open-label, single-arm, two-stage multicenter efficacy study in androgen-independent prostate cancer", "details": "i.v. 2.5 mg/m^2, 5 minute bolus infusion weekly for three weeks, one week off; chemo-naïve or failed one prior chemotherapy; trial ongoing", "description": "Open-label, single-arm, two-stage, multicenter study to investigate the efficacy of EPO906 administered intravenously at 2.5 mg/m^2 as a 5 minute bolus infusion once a week for three weeks followed by one week off in patients with androgen-independent prostate cancer who are chemo-naïve or who have failed one prior chemotherapy. 7,11-Dihydroxy-8,8,10,12,16-pentamethyl-3-[1-methyl-2-(2-methyl-thiazol-4-yl)-vinyl]-4,17-dioxa-bicyclo[14.1.0]heptadecane-5,9-dione is administered once every week for three weeks followed by a one-week drug holiday until either progression of disease or unacceptable toxicities occurs. Each four-week period is considered one cycle. Patients are evaluated for tumor response one week after their last dose of every other cycle, starting with Cycle 2. Patients may, at any time, have their dose reduced to 2.0 mg/m^2 if in the investigator's opinion the original dose is either intolerable or unsafe for any given patient, and without such a dose reduction the patient will be forced to withdraw from the study. All dose modifications are captured on the dose administration record CRF. The study period for efficacy evaluation is up to six cycles.\nPatients taking PC-SPES must discontinue therapy for a minimum of 4 weeks. […]"}, "[4]": {"test_system": "advanced colorectal cancer", "assay": "Open-label, single-arm, two-stage multicenter efficacy study in advanced colorectal cancer, weekly regimen", "details": "i.v. 2.5 mg/m2, 5 minute bolus infusion weekly for three weeks, one week off; colorectal cancer patients who failed fluoropyrimidine and Irinotecan or oxaliplatin; trial ongoing", "description": "An open-label, single-arm, two-stage multicenter study to investigate the efficacy of 7,11-Dihydroxy-8,8,10,12,16-pentamethyl-3-[1-methyl-2-(2-methyl-thiazol-4-yl)vinyl]-4,17-dioxa-bicyclo[14.1.0]heptadecane-5,9-dione administered intravenously at 2.5 mg/m2 as a 5 minute bolus infusion repeated every week for three weeks followed by one week off in patients with advanced colorectal cancer. 7,11-Dihydroxy-8,8,10,12,16-pentamethyl-3-[1-methyl-2-(2-methyl-thiazol-4-yl)-vinyl-]-4,17-dioxa-bicyclo[14.1.0]heptadecane-5,9-dione is administered once every week for three weeks followed by a one-week drug holiday until either progression of disease or unacceptable toxicities occurs. Each four-week period is considered one cycle. Patients are evaluated for tumor response one week after their last dose of every other cycle, starting with Cycle 2. Patients may, at any time, have their dose reduced to 2.0 mg/m^2 if in the investigator's opinion the original dose is either intolerable or unsafe for any given patient, and without such a dose reduction the patient will be forced to withdraw from the study. All dose modifications are captured on the dose administration record CRF. The study period for efficacy evaluation is up to six cycles. […]"}, "advanced renal cancer": {"test_system": "advanced renal cancer", "assay": "Open-label, single-arm, two-stage multicenter efficacy study in patients with advanced renal cancer", "details": "i.v. 2.5 mg/m2, 5 minute bolus infusion weekly for three weeks, one week off, trial ongoing", "description": "An open-label, single-arm, two-stage multicenter study investigating the efficacy of 7,11-Dihydroxy-8,8,10,12,16-pentamethyl-3-[1-methyl-2-(2-methyl-thiazol-4-yl)-viny]-4,17-dioxa-bicyclo[14.1.0]heptadecane-5,9-dione administered intravenously at 2.5 mg/m2 as a 5 minute bolus infusion repeated every week for three weeks followed by one week off in patients with advanced renal cancer. 7,11-Dihydroxy-8,8,10,12,16-pentamethyl-3-[1-methyl-2-(2-methyl-thiazol-4-yl)-vinyl]-4,17-dioxa-bicyclo[14.1.0]heptadecane-5,9-dione is administered once every week for three weeks followed by a one-week drug holiday until either progression of disease or unacceptable toxicities occurs. Each four-week period is considered one cycle. Patients are evaluated for tumor response one week after their last dose of every other cycle, starting with Cycle 2. Patients may, at any time, have their dose reduced to 2.0 mg/m2 if in the investigators opinion the original dose is either intolerable or unsafe for any given patient, and without such a dose reduction the patient would be forced to withdraw from the study. All dose modifications are captured on the dose administration record CRF. The study period for efficacy evaluation is up to six cycles. The study will enroll patients with histologically confirmed transitional cell carcinoma of the kidney. […]"}}}
{"smiles": "CC(=Cc1csc(C)n1)C1CC2OC2(C)CCCC(C)C(O)C(C)C(=O)C(C)(C)C(O)CC(=O)O1", "note": "(centres unmarked) [7,11-Dihydroxy-8,8,10,12,16-pentamethyl-3-[1-methyl-2-(2-methyl-thiazol-4-yl)-vinyl]-4,17-dioxa-bicyclo[14.1.0]heptadecane-5,9-dione]", "values": [{"measurement": "response of patients in the trial", "setting": "[1]", "value": "Several patients shown a positive response"}, {"measurement": "response of patients in the study", "setting": "[2]", "value": "Several patients show a positive response"}, {"measurement": "response of patients in the trial", "setting": "[3]", "value": "Several patients show a positive response"}, {"measurement": "response of patients in the trial", "setting": "[4]", "value": "Several patients shown a positive response"}, {"measurement": "response of patients in the study", "setting": "advanced renal cancer", "value": "Several patients show a positive response"}]}
